# Source: ChEMBL document CHEMBL1201861, “Genomics of Drug Sensitity in Cancer screening data, Wellcome Trust Sanger Institute”
# Assays:
# Assay in all cases: cells
# Format in all cases: functional, cell-based, Homo sapiens
# SF-295 = conditions: Homo sapiens, SF-295;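 also: growth inhibition of SF-295 cells, read out with a cell viability assay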
# Description: SANGER: Inhibition of human SF295 cell growth in a cell viability assay.
# MDA-MB-361 = conditions: Homo sapiens, MDA-MB-361
# CHP-212 = conditions: Homo sapiens, CHP-212
# Description: SANGER: Inhibition of human CHP-212 cell growth in a cell viability assay.
# PC-14 = conditions: Homo sapiens, PC-14;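 also: cell viability assay measuring inhibition of PC-14 cell growth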
# Description: SANGER: Inhibition of human PC-14 cell growth in a cell viability assay.
# KU-19-19 = conditions: Homo sapiens, KU-19-19
# Description: SANGER: Inhibition of human KU-19-19 cell growth in a cell viability assay.
# EFO-21 = conditions: Homo sapiens, EFO-21;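 also: growth inhibition of EFO-21 cells measured with a viability assay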
# Description: SANGER: Inhibition of human EFO-21 cell growth in a cell viability assay.
# HuO9 = conditions: Homo sapiens, HuO9;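 also: growth inhibition of HuO9 cells, read out with a cell viability assay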
# Description: SANGER: Inhibition of human HuO9 cell growth in a cell viability assay.
# SBC-5 = conditions: Homo sapiens, SBC-5;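 also: cell viability assay read-out, IC50 is the concentration that inhibits growth of the cells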
# Description: SANGER: Inhibition of human SBC-5 cell growth in a cell viability assay.
# MEL-HO = conditions: Homo sapiens, MEL-HO
# Description: SANGER: Inhibition of human MEL-HO cell growth in a cell viability assay.
# MDA-MB-157 = conditions: Homo sapiens, MDA-MB-157
# Description: SANGER: Inhibition of human MDA-MB-157 cell growth in a cell viability assay.
# CAL-54 = conditions: Homo sapiens, CAL-54;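 also: growth inhibition of CAL-54 cells, read out by a viability measurement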
# Description: SANGER: Inhibition of human CAL-54 cell growth in a cell viability assay.
# G-361 = conditions: Homo sapiens, G-361
# SW837 = conditions: Homo sapiens, SW837;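 also: growth inhibition of SW837 cells, determined with a cell viability assay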
# Description: SANGER: Inhibition of human SW837 cell growth in a cell viability assay.
# MKN-28 = conditions: Homo sapiens, MKN-28;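 also: cell viability assay read-out, IC50 reflects suppression of growth of human MKN-28 cells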
# Description: SANGER: Inhibition of human MKN28 cell growth in a cell viability assay.
# KYSE-520 cell line = conditions: Homo sapiens, KYSE-520;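 also: growth inhibition of human KYSE-520 cells, read out with a viability assay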
# Description: SANGER: Inhibition of human KYSE-520 cell growth in a cell viability assay.
# NCI-H2405 = conditions: Homo sapiens, NCI-H2405;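 also: growth inhibition of the human cell line, read out with a cell viability assay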
# Description: SANGER: Inhibition of human NCI-H2405 cell growth in a cell viability assay.
# HT-3 = conditions: Homo sapiens, HT-3;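 also: growth inhibition measured with a cell viability readout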
# Description: SANGER: Inhibition of human HT-3 cell growth in a cell viability assay.
# TYK-nu = conditions: Homo sapiens, TYK-nu;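 also: growth inhibition of human TYK-nu cells, read out by a cell viability assay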
# Description: SANGER: Inhibition of human TYK-nu cell growth in a cell viability assay.
# GAMG = conditions: Homo sapiens, GAMG;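 also: cell growth inhibition measured by a viability assay in the GAMG human cell line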
# Description: SANGER: Inhibition of human GAMG cell growth in a cell viability assay.
# CAL-120 = conditions: Homo sapiens, CAL-120;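 also: cell growth inhibition, read out as cell viability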
# Description: SANGER: Inhibition of human CAL-120 cell growth in a cell viability assay.
# A-427 = conditions: Homo sapiens, A-427;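 also: growth inhibition of human A-427 cells, read out by a cell viability assay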
# Description: SANGER: Inhibition of human A427 cell growth in a cell viability assay.
# IGROV-1 = conditions: Homo sapiens, IGROV-1;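 also: reduction of IGROV-1 cell growth, read out with a viability assay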
# Description: SANGER: Inhibition of human IGROV-1 cell growth in a cell viability assay.
# SiHa = conditions: Homo sapiens, SiHa;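 also: Viability-based readout of growth inhibition in SiHa cells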
# Description: SANGER: Inhibition of human SiHa cell growth in a cell viability assay.
# AU565 = conditions: Homo sapiens, AU565;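 also: cell viability assay measuring growth inhibition of human AU565 cells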
# Description: SANGER: Inhibition of human AU565 cell growth in a cell viability assay.
# MOLT-13 = conditions: Homo sapiens, MOLT-13;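 also: IC50 for suppression of MOLT-13 cell growth, read out with a cell viability assay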
# Description: SANGER: Inhibition of human MOLT-13 cell growth in a cell viability assay.
# FaDu = conditions: Homo sapiens, FaDu;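 also: cell viability readout of growth inhibition in FaDu cells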
# Description: SANGER: Inhibition of human FADU cell growth in a cell viability assay.
# T98G = conditions: Homo sapiens, T98G;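 also: growth inhibition of T98G cells, read out by a cell viability assay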
# Description: SANGER: Inhibition of human T98G cell growth in a cell viability assay.
# NUGC-3 = conditions: Homo sapiens, NUGC-3;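 also: growth inhibition of human NUGC-3 cells, read out with a cell viability assay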
# Description: SANGER: Inhibition of human NUGC-3 cell growth in a cell viability assay.
# MeWo = conditions: Homo sapiens, MeWo;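 also: growth inhibition of MeWo cells, determined by a cell viability readout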
# Description: SANGER: Inhibition of human Mewo cell growth in a cell viability assay.
# SAOS-2 = conditions: Homo sapiens, SAOS-2;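 also: growth inhibition of human Saos-2 cells determined by a cell viability assay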
# Description: SANGER: Inhibition of human Saos-2 cell growth in a cell viability assay.
# CWR22R = conditions: Homo sapiens, 22Rv1;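 also: growth inhibition of 22Rv1 cells, read out with a cell viability assay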
# Description: SANGER: Inhibition of human 22RV1 cell growth in a cell viability assay.
# BHY = conditions: Homo sapiens, BHY;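 also: cell growth inhibition read out by a viability assay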
# Description: SANGER: Inhibition of human BHY cell growth in a cell viability assay.
# LoVo = conditions: Homo sapiens, LoVo;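 also: growth inhibition of human LoVo cells, read out with a cell viability assay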
# Description: SANGER: Inhibition of human LoVo cell growth in a cell viability assay.
# DBTRG-05MG = conditions: Homo sapiens, DBTRG-05MG;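 also: cell viability assay measuring growth inhibition of human DBTRG-05MG cells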
# Description: SANGER: Inhibition of human DBTRG-05MG cell growth in a cell viability assay.
# CAPAN-1 = conditions: Homo sapiens, CAPAN-1;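 also: growth suppression of CAPAN-1 cells, read out by a cell viability assay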
# Description: SANGER: Inhibition of human CAPAN-1 cell growth in a cell viability assay.
# BT-549 = conditions: Homo sapiens, BT-549
# Description: SANGER: Inhibition of human BT-549 cell growth in a cell viability assay.
Compound,IC50 (SF-295),IC50 (MDA-MB-361),IC50 (CHP-212),IC50 (PC-14),IC50 (KU-19-19),IC50 (EFO-21),IC50 (HuO9),IC50 (SBC-5),IC50 (MEL-HO),IC50 (MDA-MB-157),IC50 (CAL-54),IC50 (G-361),IC50 (SW837),IC50 (MKN-28),IC50 (KYSE-520 cell line),IC50 (NCI-H2405),IC50 (HT-3),IC50 (TYK-nu),IC50 (GAMG),IC50 (CAL-120),further results
CC(C)CCN1c2nc(Nc3cc(F)c(O)c(F)c3)ncc2N(C)C(=O)C1C (stereo not drawn),> 5 µM,> 5 µM,> 5 µM,> 5 µM,3.6 µM,> 5 µM,2.37 µM,> 5 µM,> 5 µM,4.31 µM,> 5 µM,2.12 µM,> 5 µM,> 5 µM,> 5 µM,> 5 µM,2.51 µM,3.54 µM,0.747 µM,> 5 µM,IC50 (A-427): 3.11 µM; IC50 (IGROV-1): > 5 µM; IC50 (SiHa): > 5 µM; IC50 (AU565): > 5 µM; IC50 (MOLT-13): 3.97 µM; IC50 (FaDu): > 5 µM; IC50 (T98G): 3.28 µM; IC50 (NUGC-3): > 5 µM; IC50 (MeWo): > 5 µM; IC50 (SAOS-2): > 5 µM; IC50 (CWR22R): > 5 µM; IC50 (BHY): > 5 µM; IC50 (LoVo): 1.47 µM; IC50 (DBTRG-05MG): > 5 µM; IC50 (CAPAN-1): > 5 µM; IC50 (BT-549): > 5 µM
Nc1cccc2c1CN(C1CCC(=O)NC1=O)C2=O (stereo not drawn) [LENALIDOMIDE],> 5 µM,> 5 µM,> 5 µM,> 5 µM,> 5 µM,> 5 µM,> 5 µM,> 5 µM,> 5 µM,> 5 µM,> 5 µM,> 5 µM,> 5 µM,> 5 µM,> 5 µM,> 5 µM,> 5 µM,> 5 µM,> 5 µM,> 5 µM,IC50 (A-427): > 5 µM; IC50 (IGROV-1): > 5 µM; IC50 (SiHa): > 5 µM; IC50 (AU565): > 5 µM; IC50 (MOLT-13): > 5 µM; IC50 (FaDu): > 5 µM; IC50 (T98G): > 5 µM; IC50 (NUGC-3): > 5 µM; IC50 (MeWo): > 5 µM; IC50 (SAOS-2): > 5 µM; IC50 (CWR22R): > 5 µM; IC50 (BHY): > 5 µM; IC50 (LoVo): > 5 µM; IC50 (DBTRG-05MG): > 5 µM; IC50 (CAPAN-1): > 5 µM; IC50 (BT-549): > 5 µM
Cc1cn(-c2cc(NC(=O)c3ccc(C)c(Nc4nccc(-c5cccnc5)n4)c3)cc(C(F)(F)F)c2)cn1 [NILOTINIB],> 2 µM,> 2 µM,> 2 µM,> 2 µM,> 2 µM,> 2 µM,> 2 µM,> 2 µM,> 2 µM,> 2 µM,> 2 µM,> 2 µM,> 2 µM,> 2 µM,> 2 µM,> 2 µM,> 2 µM,> 2 µM,> 2 µM,> 2 µM,IC50 (A-427): > 2 µM; IC50 (IGROV-1): > 2 µM; IC50 (SiHa): > 2 µM; IC50 (AU565): > 2 µM; IC50 (MOLT-13): > 2 µM; IC50 (FaDu): > 2 µM; IC50 (T98G): > 2 µM; IC50 (NUGC-3): > 2 µM; IC50 (MeWo): > 2 µM; IC50 (SAOS-2): > 2 µM; IC50 (CWR22R): > 2 µM; IC50 (BHY): > 2 µM; IC50 (LoVo): > 2 µM; IC50 (DBTRG-05MG): > 2 µM; IC50 (CAPAN-1): > 2 µM; IC50 (BT-549): > 2 µM
